These results are taken from patent US20260022142A1, “MACROCYCLIC IMMUNOMODULATORS” (Bristol-Myers Squibb Company, priority 2022, published 2026).

SMILES strings stand for the structures. Bridge positions count the residues as written; N and C are the ends. Square brackets hold non-standard residues; d marks the D form. Peptide text beside a SMILES is read from it. * marks the point of attachment. Bip = N[C@@H](Cc1ccc(-c2ccccc2)cc1)C(=O)O; Phe(3-Me) = Cc1cccc(C[C@H](N)C(=O)O)c1; Val(3-OH) = CC(C)(O)[C@H](N)C(=O)O; Cha = N[C@@H](CC1CCCCC1)C(=O)O; Cit = NC(=O)NCCC[C@H](N)C(=O)O; Tle = CC(C)(C)[C@H](N)C(=O)O; Carboxymethyl = O=C(O)C*; Orn = NCCC[C@H](N)C(=O)O; Aun = NCCCCCCCCCCC(=O)O; Dab = NCC[C@H](N)C(=O)O; Dap = NC[C@H](N)C(=O)O

The target in this assay is T1, PD-1/PD-L1 interaction (PE-labeled human PD-L1-Ig binding to Jurkat cell line over-expressing human PD-1) (Homo sapiens, UniProt Q15116).
T1 construct: expressed in transfected cells; host or cells: Jurkat
T1 sequence (Q15116 25-288): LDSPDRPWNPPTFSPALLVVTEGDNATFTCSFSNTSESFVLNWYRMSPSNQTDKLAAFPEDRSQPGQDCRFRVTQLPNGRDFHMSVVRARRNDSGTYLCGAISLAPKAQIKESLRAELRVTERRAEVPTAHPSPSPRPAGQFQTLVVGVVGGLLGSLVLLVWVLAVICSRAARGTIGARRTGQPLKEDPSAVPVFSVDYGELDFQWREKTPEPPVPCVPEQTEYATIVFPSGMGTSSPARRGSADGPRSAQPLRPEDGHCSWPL
Description: Jurkat-PD-1 Cell Binding High-Content Screening Assay (CBA). The class given is cell-based. Conditions: Jurkat cell line over-expressing human PD-1; PE-labeled PD-L1-Ig 20 nM final; read-out: Jurkat hPD1-PDL1 IC50. In a few lines: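 Jurkat cells over-expressing human PD-1 (8×10^3 per well, DMEM/10% FCS) preincubated with compound 2 h at 37° C, then PE-labeled human PD-L1-Ig (20 nM final) added for 1 h. Cells fixed with paraformaldehyde, Hoechst-stained, and bound fluorescence quantified by high-content imaging.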
In the case of `Cc1cccc(C[C@@H]2NC(=O)[C@H](CC(=O)O)NC(=O)[C@H](Cc3ccc(OCC(=O)O)cc3)NC(=O)[C@H](CN)NC(=O)CSC[C@@H](C(=O)N[C@@H](CCN)C(=O)NCCCCCCCCCCC(=O)O)NC(=O)[C@H]([C@@H](C)O)NC(=O)[C@H](C(C)(C)C)NC(=O)[C@H](CC3CCCCC3)NC(=O)[C@H](CCN)NC(=O)[C@@H](CC(C)C)NC(=O)[C@H](CCCN)NC(=O)[C@H](CCCNC(N)=O)NC(=O)[C@H](Cc3ccc(-c4ccccc4)cc3)NC(=O)[C@H](C(C)C)NC2=O)c1` [Compound 2840] ({CH2CO}-[Dap]Y(Carboxymethyl)D[Phe(3-Me)]V[Bip][Cit][Orn][dL][Dab][Cha][Tle]TC[Dab][Aun]-OH; thioether N-14), the half-inhibitory concentration (IC50) came to 18.1 nM.
To `Cc1cccc(C[C@@H]2NC(=O)[C@H](CC(=O)O)NC(=O)[C@H](Cc3ccc(OCC(=O)O)cc3)NC(=O)[C@H](CN)NC(=O)CSC[C@@H](C(=O)N[C@@H](CCN)C(=O)NCCCCCCCCCCC(=O)O)NC(=O)[C@H](CCCN)NC(=O)[C@H](C(C)C)NC(=O)[C@H](CC3CCCCC3)NC(=O)[C@H](CCN)NC(=O)[C@@H](CC(C)C)NC(=O)[C@H](CCCN)NC(=O)[C@H](Cc3ccc(O)cc3)NC(=O)[C@H](Cc3ccc(-c4ccccc4)cc3)NC(=O)[C@H](C(C)C)NC2=O)c1` [Compound 2841] ({CH2CO}-[Dap]Y(Carboxymethyl)D[Phe(3-Me)]V[Bip]Y[Orn][dL][Dab][Cha]V[Orn]C[Dab][Aun]-OH; thioether N-14) belongs 12.3 nM; to `Cc1cccc(C[C@@H]2NC(=O)[C@H](CC(=O)O)NC(=O)[C@H](Cc3ccc(OCC(=O)O)cc3)NC(=O)[C@H](CN)NC(=O)CSC[C@@H](C(=O)N[C@@H](CCN)C(=O)NCCCCCCCCCCC(=O)O)NC(=O)[C@H](CCCN)NC(=O)[C@H](C(C)C)NC(=O)[C@H](CC3CCCCC3)NC(=O)[C@H](CCN)NC(=O)[C@@H](CC(C)C)NC(=O)[C@H](CCCN)NC(=O)[C@H](Cc3ccc(OCC(=O)O)cc3)NC(=O)[C@H](Cc3ccc(-c4ccccc4)cc3)NC(=O)[C@H](C(C)C)NC2=O)c1` [Compound 2842] ({CH2CO}-[Dap]Y(Carboxymethyl)D[Phe(3-Me)]V[Bip]Y(Carboxymethyl)[Orn][dL][Dab][Cha]V[Orn]C[Dab][Aun]-OH; thioether N-14), 11.1 nM; to `Cc1cccc(C[C@@H]2NC(=O)[C@H](CC(=O)O)NC(=O)[C@H](Cc3ccc(OCC(=O)O)cc3)NC(=O)[C@H](CN)NC(=O)CSC[C@@H](C(=O)N[C@@H](CCN)C(=O)NCCCCCCCCCCC(=O)O)NC(=O)[C@H](CCCN)NC(=O)[C@H](C(C)C)NC(=O)[C@H](CC3CCCCC3)NC(=O)[C@H](CCN)NC(=O)[C@@H](CC(C)C)NC(=O)[C@H](CCCN)NC(=O)[C@H](Cc3ccc(OCC(=O)O)cc3)NC(=O)[C@H](Cc3ccc(-c4ccccc4)cc3)NC(=O)[C@H](Cc3ccc(OCC(=O)O)cc3)NC2=O)c1` [Compound 2843] ({CH2CO}-[Dap]Y(Carboxymethyl)D[Phe(3-Me)]Y(Carboxymethyl)[Bip]Y(Carboxymethyl)[Orn][dL][Dab][Cha]V[Orn]C[Dab][Aun]-OH; thioether N-14), 9.2 nM.
With `Cc1cccc(C[C@@H]2NC(=O)[C@H](CC(=O)O)NC(=O)[C@H](Cc3ccc(OCC(=O)O)cc3)NC(=O)[C@H](CN)NC(=O)CSC[C@@H](C(=O)N[C@@H](CCN)C(=O)NCCCCCCCCCCC(=O)O)NC(=O)[C@H](CCCN)NC(=O)[C@H](C(C)C)NC(=O)[C@H](CC3CCCCC3)NC(=O)[C@H](CCN)NC(=O)[C@@H](CC(C)C)NC(=O)[C@H](CCCN)NC(=O)[C@H](CCCNC(N)=O)NC(=O)[C@H](Cc3ccc(-c4ccccc4)cc3)NC(=O)[C@H](Cc3ccc(OCC(=O)O)cc3)NC2=O)c1` [Compound 2844] ({CH2CO}-[Dap]Y(Carboxymethyl)D[Phe(3-Me)]Y(Carboxymethyl)[Bip][Cit][Orn][dL][Dab][Cha]V[Orn]C[Dab][Aun]-OH; thioether N-14), the IC50 stood at 25.5 nM.
Next, `Cc1cccc(C[C@@H]2NC(=O)[C@H](CC(=O)O)NC(=O)[C@H](Cc3ccc(OCC(=O)O)cc3)NC(=O)[C@H](CN)NC(=O)CSC[C@@H](C(=O)N[C@@H](CCN)C(=O)NCCCCCCCCCCC(=O)O)NC(=O)[C@H](CCCN)NC(=O)[C@H](C(C)C)NC(=O)[C@H](CC3CCCCC3)NC(=O)[C@H](CCN)NC(=O)[C@@H](CC(C)C)NC(=O)[C@H](CCCN)NC(=O)[C@H](CCCNC(N)=O)NC(=O)[C@H](Cc3ccc(-c4ccccc4)cc3)NC(=O)[C@H](C(C)C)NC2=O)c1` [Compound 2845] ({CH2CO}-[Dap]Y(Carboxymethyl)D[Phe(3-Me)]V[Bip][Cit][Orn][dL][Dab][Cha]V[Orn]C[Dab][Aun]-OH; thioether N-14): 14.2 nM; `Cc1cccc(C[C@@H]2NC(=O)[C@H](CC(=O)O)NC(=O)[C@H](Cc3ccc(OCC(=O)O)cc3)NC(=O)[C@H](CN)NC(=O)CSC[C@@H](C(=O)N[C@@H](CCN)C(=O)NCCCCCCCCCCC(=O)O)NC(=O)[C@H](CCCN)NC(=O)[C@H](C(C)C)NC(=O)[C@H](CC3CCCCC3)NC(=O)[C@H](CCN)NC(=O)[C@@H](CC(C)C)NC(=O)[C@H](CCCN)NC(=O)[C@H](CCCNC(N)=O)NC(=O)[C@H](Cc3ccc(-c4ccccc4)cc3)NC(=O)[C@H](Cc3ccc(O)cc3)NC2=O)c1` [Compound 2846] ({CH2CO}-[Dap]Y(Carboxymethyl)D[Phe(3-Me)]Y[Bip][Cit][Orn][dL][Dab][Cha]V[Orn]C[Dab][Aun]-OH; thioether N-14): 12.8 nM; `Cc1cccc(C[C@@H]2NC(=O)[C@H](CC(=O)O)NC(=O)[C@H](Cc3ccc(OCC(=O)O)cc3)NC(=O)[C@H](CN)NC(=O)CSC[C@@H](C(=O)N[C@@H](CCN)C(=O)NCCCCCCCCCCC(=O)O)NC(=O)[C@H]([C@@H](C)O)NC(=O)[C@H](C(C)C)NC(=O)[C@H](CC3CCCCC3)NC(=O)[C@H](CCN)NC(=O)[C@@H](CC(C)C)NC(=O)[C@H](CCCN)NC(=O)[C@H](CCC(N)=O)NC(=O)[C@H](Cc3ccc(-c4ccccc4)cc3)NC(=O)[C@H](C(C)C)NC2=O)c1` [Compound 2847] ({CH2CO}-[Dap]Y(Carboxymethyl)D[Phe(3-Me)]V[Bip]Q[Orn][dL][Dab][Cha]VTC[Dab][Aun]-OH; thioether N-14): 20.5 nM.
Next, `Cc1cccc(C[C@@H]2NC(=O)[C@H](CC(=O)O)NC(=O)[C@H](Cc3ccc(OCC(=O)O)cc3)NC(=O)[C@H](CCCNC(=N)N)NC(=O)CSC[C@@H](C(=O)N[C@@H](CCN)C(=O)NCCCCCCCCCCC(=O)O)NC(=O)[C@H](CCCN)NC(=O)[C@H](C(C)(C)O)NC(=O)[C@H](CC3CCCCC3)NC(=O)[C@H](CCN)NC(=O)[C@@H](CC(C)C)NC(=O)[C@H](CCCN)NC(=O)[C@H](Cc3ccc(OCC(=O)O)cc3)NC(=O)[C@H](Cc3ccc(-c4ccccc4)cc3)NC(=O)[C@H](Cc3ccc(OCC(=O)O)cc3)NC2=O)c1` [Compound 2849] ({CH2CO}-RY(Carboxymethyl)D[Phe(3-Me)]Y(Carboxymethyl)[Bip]Y(Carboxymethyl)[Orn][dL][Dab][Cha][Val(3-OH)][Orn]C[Dab][Aun]-OH; thioether N-14): 5 nM.

Usually IC50 stands for the concentration needed to halve the response being measured.
